For one series, the system named is LNCaP-AR tumors. The series is described as follows: LNCaP-AR xenograft tumor growth in SCID mice. Format: in vivo. As to conditions: for effect on tumors in an in vivo assay: administered as described (iv or oral formulation); for effect on tumor: daily dose of 1 mg/kg; for effect on tumor / tumor cytotoxicity / tumor growth: SCID mice; for tumor cytotoxicity: daily dose of 25-50 mg/kg; for tumor growth: daily oral dose of 10 mg/kg. Here is the method: All animal experiments were performed in compliance with the guidelines of the Animal Research Committee of the University of California at Los Angeles. Animals were bought from Taconic and maintained in a laminar flow tower in a defined flora colony. LNCaP-AR and LNCaP-vector cells were maintained in RPMI medium supplemented with 10% FBS. 10^6 cells in 100 μl of 1:1 Matrigel to RPMI medium were injected subcutaneously into the flanks of intact or castrated male SCID mice. Tumor size was measured weekly in three dimensions (length×width×depth) using calipers. Mice were randomized to treatment groups when tumor size reached approximately 100 mm^3. Drugs were given orally everyday at the dose of 10 mg/kg.
Other doses were also tried.
Prostate cancer cell lines were used for xenografts. For example, a LNCaP xenograft, LAPC4 xenograft, LAPC9 xenograft, and xenografts of the hormone refractory counterparts of these cell lines were made. Other cell lines included V-cap, CWR22 and LAPC4 cell lines. Two cell lines that over express the androgen receptor were generated, LNCaP AR and LAPC4 AR. […] Under androgen ablation, the LNCaP AR and LAPC4 AR lines continued to grow, thus behaving like hormone refractory cells.
CB17 SCID mice were used in the study.
Injections were made subcutaneously on the right flank of the mouse. […] In addition, because of the usage of Matrigel, injection of no more than 200 μl was found appropriate. Injection of 100-200 μl was found appropriate. Injecting too large a volume created leakage upon needle withdrawal.

Series [1] relates to androgen receptor (AR). The series is described as follows: Secreted PSA induced by R1881 in hormone refractory (HR) LNCaP/AR cells (PSA ELISA). Format: cell-based. Conditions: FIG. 3, R1881, 5 days incubation.
Experimental: (§2) The biological activity of the compound of formula II was measured by secreted levels of prostate specific antigen (PSA). […] LNCaP cells (or LNCaP/AR cells) were maintained in Iscove's medium containing 10% FBS. Five days prior to drug treatment, the cells were grown in Iscove's medium containing 10% CS-FBS to deprive of androgens.
A further series can be described thus: Solubility in ethanol. Format: physicochemical. The text has this:
(§1) When administered to mice, hardening of the skin and skin irritation around the injection site was observed, and this was attributed to the use of DMSO.

In series [2] the target is T1, androgen receptor (AR) (Homo sapiens, UniProt P10275, T878A).
T1 construct: endogenous in cells; host or cells: LNCaP cells
T1 sequence (P10275 1-920 T878A): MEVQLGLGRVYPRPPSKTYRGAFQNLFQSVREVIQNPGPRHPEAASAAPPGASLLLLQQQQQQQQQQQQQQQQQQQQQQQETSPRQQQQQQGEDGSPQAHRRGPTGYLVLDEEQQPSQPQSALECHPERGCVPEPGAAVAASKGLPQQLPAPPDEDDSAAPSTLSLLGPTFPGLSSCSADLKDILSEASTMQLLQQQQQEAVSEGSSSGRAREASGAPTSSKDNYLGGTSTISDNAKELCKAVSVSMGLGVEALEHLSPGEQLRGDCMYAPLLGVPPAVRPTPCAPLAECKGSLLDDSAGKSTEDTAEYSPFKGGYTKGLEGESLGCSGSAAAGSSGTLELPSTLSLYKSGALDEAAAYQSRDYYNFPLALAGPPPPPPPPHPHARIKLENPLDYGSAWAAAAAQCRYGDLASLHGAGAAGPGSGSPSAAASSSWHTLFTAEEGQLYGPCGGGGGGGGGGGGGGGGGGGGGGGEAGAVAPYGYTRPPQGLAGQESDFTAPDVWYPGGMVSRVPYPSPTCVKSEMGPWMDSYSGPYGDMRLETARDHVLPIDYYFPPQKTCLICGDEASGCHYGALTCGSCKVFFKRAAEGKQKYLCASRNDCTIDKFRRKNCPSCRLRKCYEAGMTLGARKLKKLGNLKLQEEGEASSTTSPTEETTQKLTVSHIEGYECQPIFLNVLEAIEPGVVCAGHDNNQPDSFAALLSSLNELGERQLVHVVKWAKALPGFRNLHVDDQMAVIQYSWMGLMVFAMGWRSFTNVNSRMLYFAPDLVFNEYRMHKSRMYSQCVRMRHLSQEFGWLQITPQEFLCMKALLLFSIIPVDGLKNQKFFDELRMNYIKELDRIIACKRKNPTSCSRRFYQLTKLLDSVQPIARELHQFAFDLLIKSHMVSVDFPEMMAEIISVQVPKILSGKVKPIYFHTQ
The series is described as follows: Secreted PSA induced by R1881 in hormone sensitive (HS) LNCaP cells (PSA ELISA). Conditions: FIG. 1, R1881, 5 days incubation. Format: cell-based.
Experimental: as §2

Series [3] is described as follows: Stability of the compounds in vivo with ethanol as solvent. Conditions: mice.
Excerpt: as §1

For a further series, the system named is LNCaP cells. As to the kind of experiment: MTS assay, growth inhibition of HS cancer cells. Format: cell-based. As to conditions: FIG. 2. How it is done: The biological activity of the compound of formula II was measured by secreted levels of prostate specific antigen (PSA). It is well established that PSA levels are indicators of AR activities in prostate cancer. […] After 5 days of incubation, secreted PSA levels were assayed using PSA ELISA kits (American Qualex, San Clemente, Calif.) (See FIG. 1 and FIG. 3). The MTS assay was also used to examine the growth inhibition of the compounds of formula II (See FIG. 2).

Series [4] in a line: Stability of intravenous formulation (DMSO/PBS solution) at room temperature. Format: physicochemical. As to conditions: 10-25% DMSO, balance PBS. Here is the method: A compound presently disclosed, for example, compound A51 or A52, can be in a formulation suitable for intravenous dosing. In an embodiment, the compound is dissolved in from about 10% to about 25% dimethylsulfoxide (DMSO). 1× phosphate buffered saline (PBS) is then mixed into the solution as the balance, and the solution is sonicated with a water bath sonicator until it is homogeneous.
At a compound concentration of 1.5 mg/mL, 5 minutes of sonication may be sufficient to dissolve the compound. At a compound concentration of 2 mg/ml, more than 5 minutes of sonication may be required to dissolve the compound and a polyethylene glcyol can be added to keep the compound in suspension. For example, 5 to 40% PEG-400 (a polyethylene glycol), such as, 5-10% PEG-400, can be added.

Series [5] can be described thus: Suspension stability of oral formulation (DMSO/CMC/Tween 80/water). Format: physicochemical. As to conditions: oral formulation: DMSO, CMC, Tween 80, water; about 1.5 mg/mL. Here is the method: In an embodiment, the compound is dissolved in 100% DMSO.
Additional chemicals can be added, such as a carboxymethylcellulose, a polysorbate, or water. […] The solution is mechanically homogenized for at least 30 seconds.
That is, more than 10% DMSO was not required.

SMILES strings stand for the structures.

Take `Cc1ccc(N2C(=S)N(c3cnc(C#N)c(C(F)(F)F)c3)C(=O)C23CCC3)cc1` [A51, 5-(8-oxo-6-thioxo-5-(4-methylphenyl)-5,7-diazaspiro[3.4]oct-7yl)-3-trifluoromethylpyridine-2-carbonitrile]: in the series with LNCaP-AR tumors, the “effect on tumors in an in vivo assay” value is on record as “beneficial effect on tumors”, the effect on tumor entry is on record as “mild effect”, the tumor cytotoxicity entry is “some tumor cytotoxicity” and the tumor growth result is “completely retard tumor growth”. In the series on androgen receptor (AR) [1], the “antagonist effect on HR cancer cells (secreted PSA)” value is “antagonist effect”. The solubility in ethanol entry in “Solubility in ethanol” is on record as “soluble in ethanol”. The “antagonist effect on HS cancer cells (secreted PSA)” value on androgen receptor (AR) [2] was “antagonist effect”. Besides, the “effect of ethanol on stability of the compounds in vivo” value in series [3] is reported as “reduce the stability”. Also, the “antagonist effect on HS cancer cells (MTS growth inhibition)” value with LNCaP cells is on record as “antagonist effect”. Besides, in series [4], the stability of solution entry is listed as “stable at room temperature for at least a week”. The “time the compound stays in suspension” value in series [5] is on record as “only a couple of hours”.
In the case of `CNC(=O)c1ccc(N2C(=S)N(c3cnc(C#N)c(C(F)(F)F)c3)C(=O)C23CCC3)cc1F` [A52, 4-[7-(6-cyano-5-trifluoromethylpyridin-3-yl)-8-oxo-6-thioxo-5,7-diazaspiro[3,4]oct-5-yl]-2-fluoro-N-methylbenzamide], the Luciferase activity entry with LNCaP-AR tumors (FIG. 6, after 17 days of treatment) is on record as “disappearance of Luciferase activity”. For the same molecule, in the series with LNCaP-AR tumors, the “effect on tumors in an in vivo assay” value is “beneficial effect on tumors”, the effect on tumor entry is given as “mild effect”, the tumor cytotoxicity result was “some tumor cytotoxicity” and the tumor growth result is “completely retard tumor growth”. For the same molecule, in “Solubility in ethanol”, the solubility in ethanol result is given as “soluble in ethanol”. The “effect of ethanol on stability of the compounds in vivo” value in series [3] is reported as “reduce the stability”. For the same molecule, the “antagonist effect on HS cancer cells (MTS growth inhibition)” value in the series with LNCaP cells was “antagonist effect”. In addition, in series [4], the stability of solution entry is recorded as “stable at room temperature for at least a week”. Further, the “time the compound stays in suspension” value in series [5] was “only a couple of hours”.
